For one experiment, the target named is T1, F508del (Homo sapiens, UniProt P13569, DEL508-508).
T1 construct: expressed in transfected cells
T1 sequence (P13569 with tags, fused parts or gaps DEL508-508): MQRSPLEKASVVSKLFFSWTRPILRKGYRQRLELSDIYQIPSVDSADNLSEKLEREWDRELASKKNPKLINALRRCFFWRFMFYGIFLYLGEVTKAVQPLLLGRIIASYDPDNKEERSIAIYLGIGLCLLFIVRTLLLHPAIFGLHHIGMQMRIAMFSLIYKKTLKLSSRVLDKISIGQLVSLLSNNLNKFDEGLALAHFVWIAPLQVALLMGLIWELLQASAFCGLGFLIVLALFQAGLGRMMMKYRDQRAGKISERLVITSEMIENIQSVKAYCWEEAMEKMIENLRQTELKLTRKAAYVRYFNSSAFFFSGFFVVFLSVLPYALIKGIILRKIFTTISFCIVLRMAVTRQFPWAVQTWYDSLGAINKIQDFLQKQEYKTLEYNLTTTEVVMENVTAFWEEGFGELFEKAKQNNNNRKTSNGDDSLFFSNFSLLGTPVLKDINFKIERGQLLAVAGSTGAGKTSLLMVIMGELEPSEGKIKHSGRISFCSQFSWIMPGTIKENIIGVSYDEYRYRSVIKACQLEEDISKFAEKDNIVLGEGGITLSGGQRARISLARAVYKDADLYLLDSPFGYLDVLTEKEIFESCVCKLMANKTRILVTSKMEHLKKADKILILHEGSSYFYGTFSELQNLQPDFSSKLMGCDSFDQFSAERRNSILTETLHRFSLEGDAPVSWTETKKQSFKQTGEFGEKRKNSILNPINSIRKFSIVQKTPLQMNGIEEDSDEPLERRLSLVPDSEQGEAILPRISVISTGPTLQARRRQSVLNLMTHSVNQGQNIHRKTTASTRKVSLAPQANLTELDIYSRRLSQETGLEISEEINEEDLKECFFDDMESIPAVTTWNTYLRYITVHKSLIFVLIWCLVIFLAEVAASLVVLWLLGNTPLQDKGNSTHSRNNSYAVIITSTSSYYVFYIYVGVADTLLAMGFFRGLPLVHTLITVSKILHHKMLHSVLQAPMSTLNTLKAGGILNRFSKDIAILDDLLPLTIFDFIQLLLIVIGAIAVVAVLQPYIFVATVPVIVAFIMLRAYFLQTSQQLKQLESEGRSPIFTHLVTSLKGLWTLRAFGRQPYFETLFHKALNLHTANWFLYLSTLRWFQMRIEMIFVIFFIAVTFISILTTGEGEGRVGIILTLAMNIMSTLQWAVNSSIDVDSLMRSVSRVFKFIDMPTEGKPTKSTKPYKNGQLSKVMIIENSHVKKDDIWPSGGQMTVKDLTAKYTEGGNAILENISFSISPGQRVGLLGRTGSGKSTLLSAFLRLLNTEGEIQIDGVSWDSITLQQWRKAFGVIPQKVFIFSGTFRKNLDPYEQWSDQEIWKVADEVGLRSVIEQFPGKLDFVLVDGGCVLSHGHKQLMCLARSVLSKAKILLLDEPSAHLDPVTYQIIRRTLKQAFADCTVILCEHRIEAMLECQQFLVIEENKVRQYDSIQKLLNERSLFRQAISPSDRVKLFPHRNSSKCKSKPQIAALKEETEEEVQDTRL
The experiment can be described thus: Protocol 2: FRET membrane potential optical assay (VIPR), identification of correction compounds. The experiment is classed as cell-based. The settings on record: F508del CFTR modulator activity; compounds of Table 1; read-out: EC30. The essentials: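 NIH3T3 mouse fibroblasts stably expressing F508del-CFTR incubated with compound 16 h at 37 °C in serum-free medium, then loaded with CC2-DMPE/DiSBAC2(3) FRET dyes. Channel activated with 10 μM forskolin plus 20 μM genistein in Cl⁻-free (gluconate) bath; depolarisation from Cl⁻ efflux read on VIPR II.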
As a reminder, the EC30 is the concentration at which the effect reaches the 30% level. Regarding `COc1cccc(-c2ccc(C(=O)NS(=O)(=O)c3ccccc3)c(N3C[C@@H](C)CC3(C)C)n2)n1` [Compound 2411, N-(benzenesulfonyl)-6-(6-methoxy-2-pyridyl)-2-[(4S)-2,2,4-trimethylpyrrolidin-1-yl]pyridine-3-carboxamide], the EC30 is below 3 µM.

As for `CC(C)COc1cc(F)cc(-c2ccc(C(=O)NS(=O)(=O)c3cccc(N)n3)c(N3CCCC(C)(C)CC3)n2)c1` [Compound 2171, N-[(6-amino-2-pyridyl)sulfonyl]-2-(4,4-dimethylazepan-1-yl)-6-(3-fluoro-5-isobutoxy-phenyl)pyridine-3-carboxamide], the EC30 is below 3 µM.

For the compound `COc1cc(F)c(F)cc1-c1ccc(C(=O)NS(=O)(=O)c2cccnc2N)c(N2C[C@@H](C)CC2(C)C)n1` [Compound 2334, N-[(2-amino-3-pyridyl)sulfonyl]-6-(4,5-difluoro-2-methoxy-phenyl)-2-[(4S)-2,2,4-trimethylpyrrolidin-1-yl]pyridine-3-carboxamide], the EC30 was below 3 µM.

With `Cc1cc(OCC(C)C)cc(-c2cnc(N3CC(C)CC3(C)C)c(C(=O)NS(=O)(=O)c3cccc(N)n3)c2)c1` (stereo not drawn) [Compound 2558, N-[(6-amino-2-pyridyl)sulfonyl]-5-(3-isobutoxy-5-methyl-phenyl)-2-(2,2,4-trimethylpyrrolidin-1-yl)pyridine-3-carboxamide], the concentration for an effect of 30% (EC30) is below 3 µM.

As for `COCCCNc1cccc(S(=O)(=O)NC(=O)c2cccnc2N2CC(C)CC2(C)C)n1` (stereo not drawn) [Compound 2135, N—[[6-(3-methoxypropylamino)-2-pyridyl]sulfonyl]-2-(2,2,4-trimethylpyrrolidin-1-yl)pyridine-3-carboxamide], the 30% effect concentration (EC30) was in the range of 3 to 10 µM.

On to `CC1CN(c2ncc(-c3ccccc3Cl)cc2C(=O)NS(=O)(=O)c2cccc(N)n2)C(C)(C)C1` (stereo not drawn) [Compound 2312, N-[(6-amino-2-pyridyl)sulfonyl]-5-(2-chlorophenyl)-2-(2,2,4-trimethylpyrrolidin-1-yl)pyridine-3-carboxamide], for which the EC30 is below 3 µM.

As for `Cc1ccc2cc(C(=O)NS(=O)(=O)c3cccc(N)n3)c(N3C[C@@H](C)CC3(C)C)nc2c1` [Compound 2519, N-[(6-amino-2-pyridyl)sulfonyl]-7-methyl-2-[(4S)-2,2,4-trimethylpyrrolidin-1-yl]quinoline-3-carboxamide], the concentration for an effect of 30% (EC30) was below 3 µM.

As to `CCOc1cc(C)c(-c2ccc(C(=O)NS(=O)(=O)c3cccc(N)n3)c(N3C[C@@H](C)CC3(C)C)n2)cc1C` [Compound 2227, N-[(6-amino-2-pyridyl)sulfonyl]-6-(4-ethoxy-2,5-dimethyl-phenyl)-2-[(4S)-2,2,4-trimethylpyrrolidin-1-yl]pyridine-3-carboxamide], the EC30 is below 3 µM.

`CC(C)c1ccccc1-c1ccc(C(=O)NS(=O)(=O)c2cccnc2N)c(N2C[C@@H](C)CC2(C)C)n1` [Compound 2172, N-[(2-amino-3-pyridyl)sulfonyl]-6-(2-isopropylphenyl)-2-[(4S)-2,2,4-trimethylpyrrolidin-1-yl]pyridine-3-carboxamide]: the EC30 was below 3 µM.

`CC(C)COc1cc(F)cc(-c2ccc(C(=O)NS(=O)(=O)c3cccnc3)c(N3C[C@@H](C)CC3(C)C)n2)c1` [Compound 2377, 6-(3-fluoro-5-isobutoxy-phenyl)-N-(3-pyridylsulfonyl)-2-[(4S)-2,2,4-trimethylpyrrolidin-1-yl]pyridine-3-carboxamide]: the 30% effect concentration (EC30) was below 3 µM.

Consider `Cc1cc(C)cc(-c2ccc(C(=O)NS(=O)(=O)c3cccnc3N)c(N3C[C@@H](C)CC3(C)C)n2)c1` [Compound 2127, N-[(2-amino-3-pyridyl)sulfonyl]-6-(3,5-dimethylphenyl)-2-[(4S)-2,2,4-trimethylpyrrolidin-1-yl]pyridine-3-carboxamide], for which the EC30 is below 3 µM.

On to `CC1CCN(c2cccc(S(=O)(=O)NC(=O)c3cccnc3N3CC(C)CC3(C)C)n2)C1` (stereo not drawn) [Compound 2116, N—[[6-(3-methylpyrrolidin-1-yl)-2-pyridyl]sulfonyl]-2-(2,2,4-trimethylpyrrolidin-1-yl)pyridine-3-carboxamide], for which the 30% effect concentration (EC30) is below 3 µM.

Staying with this experiment, now noted: Table 3; compounds of Table 1 as modulators of CFTR activity; protocol not stated.
`Cc1ccc(-c2nc(C(C)(C)C)ccc2C(=O)NS(=O)(=O)c2cccnc2N)cc1` [Compound 636, N-[(2-amino-3-pyridyl)sulfonyl]-6-tert-butyl-2-(p-tolyl)pyridine-3-carboxamide]: the EC30 entry was “++ (“++” means between 3 uM and 10 uM)”.

As to `CC(C)COc1cccc(-c2ccc(C(=O)NS(=O)(=O)c3cccc(N)n3)c(N3[C@H](C)CC[C@@H]3C)n2)n1` [Compound 432, N-[(6-amino-2-pyridyl)sulfonyl]-2-[(2S,5R)-2,5-dimethylpyrrolidin-1-yl]-6-(6-isobutoxy-2-pyridyl)pyridine-3-carboxamide], the EC30 result was “+++ (“+++” means <3 uM)”.

With `Cc1cccc(C)c1Oc1nc(-c2cc(F)cc(OCC(C)C)c2)ccc1C(=O)NS(=O)(=O)c1ccn[nH]1` [Compound 671, 2-(2,6-dimethylphenoxy)-6-(3-fluoro-5-isobutoxy-phenyl)-N-(1H-pyrazol-5-ylsulfonyl)pyridine-3-carboxamide], the EC30 entry is recorded as “+++ (“+++” means <3 uM)”.

With `COc1c(F)cc(Cl)cc1-c1cc(C(=O)NS(=O)(=O)c2ccccc2)n(Cc2c(C)cccc2C)n1` [Compound 379, N-(benzenesulfonyl)-5-(5-chloro-3-fluoro-2-methoxy-phenyl)-2-[(2,6-dimethylphenyl)methyl]pyrazole-3-carboxamide], the concentration for an effect of 30% (EC30) entry is listed as “+++ (“+++” means <3 uM)”.

Consider `CC(C)COc1cc(F)cc(-c2ccc(C(=O)NS(=O)(=O)c3cccc(N)n3)c(OCC3CCO3)n2)c1` (stereo not drawn) [Compound 640, N-[(6-amino-2-pyridyl)sulfonyl]-6-(3-fluoro-5-isobutoxy-phenyl)-2-(oxetan-2-ylmethoxy)pyridine-3-carboxamide], for which the EC30 entry is “++ (“++” means between 3 uM and 10 uM)”.

In the case of `CC(C)Oc1ccc(-c2ccc(C(=O)NS(=O)(=O)c3cccc(N)n3)c(N3CCCC(C(C)C)C3)n2)cn1` (stereo not drawn) [Compound 114, N-[(6-amino-2-pyridyl)sulfonyl]-6-(6-isopropoxy-3-pyridyl)-2-(3-isopropyl-1-piperidyl)pyridine-3-carboxamide], the 30% effect concentration (EC30) result is “+++ (“+++” means <3 uM)”.

As for `Cc1cc(C)c(Oc2nc(-c3cc(O)cc(F)c3)ccc2C(=O)NS(=O)(=O)c2cccc(N)n2)c(C)c1` [Compound 505, N-[(6-amino-2-pyridyl)sulfonyl]-6-(3-fluoro-5-hydroxy-phenyl)-2-(2,4,6-trimethylphenoxy)pyridine-3-carboxamide], the 30% effect concentration (EC30) entry was “++ (“++” means between 3 uM and 10 uM)”.

Turning to `CCOc1cc(F)cc(-c2ccc(C(=O)NS(=O)(=O)c3cc[nH]n3)c(Oc3c(C)cc(C)cc3C)n2)c1` [Compound 585, 6-(3-ethoxy-5-fluoro-phenyl)-N-(1H-pyrazol-3-ylsulfonyl)-2-(2,4,6-trimethylphenoxy)pyridine-3-carboxamide], the EC30 entry is “+++ (“+++” means <3 uM)”.

In the case of `CC(C)Oc1cc(-c2ccc(C(=O)NS(=O)(=O)c3ccn[nH]3)c(N3[C@H](C)CC[C@@H]3C)n2)ccc1Cl` [Compound 701, 6-(4-chloro-3-isopropoxy-phenyl)-2-[(2S,5R)-2,5-dimethylpyrrolidin-1-yl]-N-(1H-pyrazol-5-ylsulfonyl)pyridine-3-carboxamide], the 30% effect concentration (EC30) result is on record as “+++ (“+++” means <3 uM)”.
